# Assays:
# Rat neutrophils = assay: Test for elastase production by fMLP stimulation (elastase release inhibition); assay type: cell-based; conditions: Neutrophil; elastase release from cytochalasin B-primed rat neutrophils stimulated with fMLP (1 μM); elastase activity in supernatant
# Procedure: Rat neutrophils preparation was obtained 15-18 hrs after intraperitoneal injection of a 1% sterile casein solution in saline (120 mL/kg). Cells were harvested by peritoneal lavage after the decapitation. The lavage fluid was ice-cold PBS (Phosphate-Buffered Saline). Peritoneal exudates were pooled, centrifuged and suspended in HBSS (Hanks' Balanced Salt Solution) at 1×10^7 cells/mil. Cytochalasin B (final concentration: 5 μg/ml) were added to prime the cells. The cells were added into a 96-well culture plate (190 μL/well) and then the compounds of the present invention at various concentrations (10^−7 to 3×10^−5 M) were added and incubated at 37° C. in an atmosphere of 5% CO2 in air. After 10 minutes, fMLP (20 μM, 10 μL) was added, while 10 μL of an HBSS solution containing 0.4% ethanol was added to the group to which no fMLP was added. After gently stirring, cells were incubated for further 10 minutes. The reaction was stopped on ice, and an incubated supernatant was recovered by centrifugation.
# Elastase activity in the incubated supernatant was measured using a specific elastase substrate, N-succinyl-L-alanyl-L-alanyl-L-proline-valine-MCA (Peptide Institute, Inc., Osaka), 0.12 mM in 50 mM Tris-HCl (pH 8.0). Fifty microliter of an incubated supernatant was added to the substrate solution (50 μL) and incubated at 37° C. for 30 minutes. Elastase activity was assayed at a wavelength of 360 nm at excitation and 480 nm at emission.
# Elastase release-inhibiting activity (inhibition ratio) was calculated according to the following equation: Inhibition ratio (%)={1−(A−C)/(B−C)}×100 wherein A stands for a fluorescence intensity when […]; and C stands for a fluorescence intensity when fMLP (1 μM) was not added.
# Inhibitory concentration of 50% (IC50 value) of the compound of the invention was calculated with a concentration-inhibition ratio curve.
# [1] = system: Rat transient MCA occlusion (t-MCAo) model; assay: Infarct volume in rat transient MCA occlusion (t-MCAo) model; assay type: in vivo; conditions: intravenous 1 hour infusion immediately after reperfusion
# Procedure: FIG. 1 represents an effect of the compound 50 on infarct volume in rat t-MCAo model. The infarct volumes of total (closed bar), cortex (solid bar) and sub-cortex (open bar) were determined 71 hrs after reperfusion. Data are presented as mean ±SEM. *p<0.05 vs vehicle-treated group (Dunnett's test).
# Adult male Wistar rats (200-250 g) were anesthetized with 2% halothane in air. The right internal carotid artery (ICA) was carefully dissected. A silicon-coated suture (18 mm-long) was inserted to the ICA. Body temperature was maintained at 37° C. with a heating pad. […] After 1 hour of MCA occlusion, the thread was removed to allow reperfusion of the ischemic area. Rats were received intravenously 1 hour-infusion of vehicle (10% of HP-β-CD) or the compound 50 dissolved in vehicle immediately after reperfusion.
# To measure infarct volume, rats were killed at 71 hours of reperfusion. Brains were perfused transcardially with physiological saline, and removed from skulls, cut into 2-mm coronal sections. The slices were immersed in 2% triphenyltetrazolium chloride (TTC) solution at 37° C. for 30 minutes.
# All values were presented as mean ±SEM. For statistical analyses, Dunnett's multiple-range test was used.
SMILES,IC50 (Rat neutrophils),"reduction of total infarct volume as compared with vehicle-treated group ([1]; 0.01 mg/kg/min, 71 hours of reperfusion, significant)","effect on infarct volume ([1]; from 0.001 mg/kg/min, doses 0.001, 0.01, 0.1 mg/kg/min)"
"CCCC[C@@H](O)C#CCCCCCCCCCCCCCC(=O)O [Compound 4, (R)-17-Hydroxyheneicos-15-ynoic acid]",10.3 µM,–,–
"CCCC[C@@H](O)C#CCCCCCCCCCCCCC(=O)O [Compound 12, (R)-16-Hydroxyeicos-14-ynoic acid]",9.18 µM,–,–
"CCCC[C@@H](O)/C=C\CCCCCCCCCCCCC(=O)O [Compound 50, (R)-(Z)-16-Hydroxyeicos-14-enoic acid]",8.29 µM,35.3%,reduced the infarct volume
"CCCC[C@@H](O)/C=C\CCCCCCCCCCCC(=O)O [Compound 65, (R)-(Z)-15-Hydroxynonadec-13-enoic acid]",17.5 µM,–,–

# Reference: patent publication US20050038259A1, “Hydroxyeicosenoic acid anaglogs” (priority 2001, published 2005)
